Reference: patent publication US3966779A, “Thymol derivatives and a process for their preparation” (priority 1974, dated 1976)
Where a name gives a salt, the structure may show the parent alone.

How the values were obtained:
[1] = Acute toxicity, 7-day test, method of Litchfield and Wilcoxon; conditions: mouse, in vivo, mice
Excerpt: The toxicity has been determined in a 7-day test with NMRI-mice having an average body weight of 18 to 26 g according to the method of Litchfield and Wilcoxon.

nictitating-membrane = assay: Adrenaline stimulated nictitating-membrane of anesthetized cats (peripheral vasodilation); assay type: in vivo; conditions: for change in adrenaline-induced nictitating-membrane contraction: anesthetized cats, 0.01 mg Adrenaline i.v.; for effectiveness compared to Compound A (nictitating-membrane): in words, from Table II
Description: a. Adrenaline stimulated nictitating-membrane of anesthetized cats
This experiment is a classical model for the measurements of a peripheral vasodilation. Male and female cats have been anesthetized with pentobarbital. After tracheotomy the contraction of the nictitating-membrane was recorded by means of a strain-gauge. As stimulating agent 0.01 mg Adrenaline has been administered intravenously in intervals of 10 minutes.

isolated rabbit ears = assay: Isolated rabbit ears, Pissensky's method (increased number of drops)
Description: b. Experiments on isolated rabbit ears
Male and female rabbits were killed 15 minutes after administration of heparine. Both ears were then cut off at the bases and examined according to Pissensky's method. The overflowing drops were measured by means of an electronic drop counter.

[2] = prior art, cited from earlier work

Structure (SMILES) | LD50 at 168 h ([1]; iv) [mg/kg] | LD50 at 168 h ([1]; po, i.g.) [mg/kg] | LD50 at 168 h ([1]; sc) [mg/kg] | change in adrenaline-induced nictitating-membrane contraction (nictitating-membrane; 0.025 mg/kg i.v.) | change in adrenaline-induced nictitating-membrane contraction (nictitating-membrane; 0.5 mg/kg i.v.) | change in adrenaline-induced nictitating-membrane contraction (nictitating-membrane; 2 mg/kg i.v.) | effectiveness compared to Compound A (nictitating-membrane) (nictitating-membrane) | Increased number of drops measured in the isolated rabbit ear (isolated rabbit ears; 0,5 mg) | Increased number of drops measured in the isolated rabbit ear (isolated rabbit ears; 1 mg) [%] | Increased number of drops measured in the isolated rabbit ear (isolated rabbit ears; 2 mg) [%] | Increased number of drops measured in the isolated rabbit ear (isolated rabbit ears; 4 mg) | Increased number of drops measured in the isolated rabbit ear (isolated rabbit ears; 0,025 mg) | duration of action [2] | absorbability ([2]; thymoxamine) | toxicity ([2]; thymoxamine) | action on the vessels of isolated rabbit ears (isolated rabbit ears; in words, from Table III)
CCCCCCCCCC(=O)Oc1cc(C(C)C)c(OCCN(C)C)cc1C [Compound 2, (4-Caprinyloxy-thymyl)-(2'-dimethylaminoathyl)-ether.HCl] | 96 | 1020 | 1550 | ~ 10% | ~ 50% | 80% | much more effective than Compound A | 10% | 27 | 68 | ~ 80% | 15% |  |  |  | 
CCCCCCCC(=O)Oc1cc(C(C)C)c(OCCN(C)C)cc1C [Compound 3, (4-Capryloxy-thymyl)-(2'-dimethylaminoathyl)-ether.HCl] | 25 | 400 |  | ~ 30% | 80% | 100% | much more effective than Compound A | 80% |  |  |  | ~ 40% |  |  |  | 
CC(=O)Oc1cc(C(C)C)c(OCCN(C)C)cc1C [Compound A, reference compound] | 48 | 193 | 156 | 0% | 0% | 50% |  | 15% | 15 | 16 | 16% | 14% | short duration of action | low absorbability | relative toxicity | 
Cc1cc(OCCN(C)C)c(C(C)C)cc1OC(=O)OC(C)C [Compound 1, (4-Isopropoxycarboxy-thymyl)-(2'-dimethylaminoathyl)-ether.HCl] | 44 | 272 | 210 | ~ 60% | 100% | absolute in- | much more effective than Compound A | ~ 20% | 34 | 58 | 139% | ~ 10% |  |  |  | unexpected action on the vessels of isolated rabbit ears
